# Assay results published in patent US11446282B2, “Methods of treating mixed dyslipidemia and hypertriglycertdemia” (Kowa Company, Ltd., priority 2017, dated 2022).
# Legend:
# [1] = test system: apolipoprotein (Apo) A1 transgenic mice; assay: TG decrease and HDL-C increase in Apo A1 transgenic mice; assay type: in vivo; conditions: versus fenofibrate
# [2] = test system: major drug metabolizing enzymes in the liver; assay: Inhibition of major drug metabolizing enzymes in the liver; assay type: in vitro ADME
# [3] = test system: dyslipidemic patients with renal impairment; assay: Example 3 phase III 52-week trial: lipid levels; assay type: in vivo, human; conditions: for HDL-C % Change from baseline at Week 52 (LOCF) / HDL-C Week 52 (LOCF) / LDL-C % Change from baseline at Week 52 (LOCF) / LDL-C Week 52 (LOCF) / RemL-C % Change from baseline at Week 52 (LOCF) / RemL-C Week 52 (LOCF) / TG % Change from baseline at Week 52 (LOCF) / TG Week 52 (LOCF) / TG/HDL-C % Change from baseline at Week 52 (LOCF) / TG/HDL-C Week 52 (LOCF) / apoA1 % Change from baseline at Week 52 (LOCF) / apoA1 Week 52 (LOCF) / non-HDL-C % Change from baseline at Week 52 (LOCF) / non-HDL-C Week 52 (LOCF): 0.2 (0.4) mg/day
# Description: This was a multicenter, single-arm, open-label, phase III trial. The inclusion criteria were as follows: (1) patients with dyslipidemia aged >20 years at the time of informed consent; (2) men and postmenopausal women; (3) fasting serum TG≥1.70 mmol/L (150 mg/dL) at two consecutive measurements during screening; and (4) patients who followed dietary and physical exercise guidance for >12 weeks before enrollment.
# The major exclusion criteria were as follows: (1) patients with fasting serum TG≥5.65 mmol/L (500 mg/dL) during screening; (2) patients with poorly controlled diabetes mellitus (hemoglobin A1c [HbA1c]≥10.5%); (3) patients with concurrent poorly controlled thyroid disease; (4) men with serum creatinine ≥2.5 mg/dL and women with serum creatinine ≥2.0 mg/dL during screening who were already on statin therapy; (5) patients with eGFR<45 mL/min/1.73 m^2 during screening who were already on statin therapy; (6) patients with CK>5ULN (270 IU/L for men, 150 IU/L for women) during screening who were already on statin therapy; (7) patients with serious liver disease (cirrhosis Child-Pugh Class B or higher); (8) patients with gallstones or serious biliary tract disease; (9) patients who had suffered an acute myocardial infarction or stroke within three months before informed consent; and (10) patients with New York Heart Association class III or IV heart failure.
# During the screening period (8 weeks prior to treatment initiation), tests were performed twice to determine patient eligibility. Thereafter, eligible patients orally received pemafibrate 0.2 mg/day (twice daily) for 52 weeks. From week 12 of the treatment period onwards, the investigators were instructed that the dose could be increased from 0.2 mg/day to 0.4 mg/day (twice daily) if there was an inadequate response to the initial dose based on fasting serum TG levels ≥1.70 mmol/L (150 mg/dL). Fasting blood and urine samples were collected at each visit. Blood and urine sample in patients with hemodialysis were collected just before dialysis. LDL-C levels were measured using the direct method. Lipoprotein fractions were measured by HPLC at baseline and weeks 12 and 40.
# The primary efficacy endpoint was the percent change in fasting serum TG from baseline to the last evaluation point. The primary safety endpoints were the incidence of an AE or ADR occurring after drug administration during the study. Secondary efficacy endpoints included percent changes in lipid variables and changes in inflammation variables at week 52 [using the last-observation-carried-forward (LOCF)]. Secondary safety endpoints included changes in the levels of aspartate aminotransferase (AST), ALT, -GT, ALP, serum creatinine, eGFR, and CK at week 52. Each baseline value was defined as (1) the mean of the corresponding values in the first and second tests at the screening examination and at week 0 of the treatment period for fasting serum TG, HDL-C, total cholesterol (TC), LDL-C, and non-HDL-C; and (2) the value at week 0 of the treatment period for the other secondary variables.
# The target sample size was set to 170 patients based on the number required to evaluate safety according to the International Conference on Harmonisation (ICH)-E1 guideline “Extent of population exposure to assess clinical safety for drugs intended for long-term treatment of non-life-threatening conditions”. For the primary efficacy endpoint, one-sample t-tests were performed.
# The numbers of patients with AEs and ADRs and the incidences of AEs and ADRs were calculated in the analysis of primary safety endpoints. For the secondary efficacy endpoints, one-sample t-tests or Wilcoxon signed-rank tests [for high-sensitivity C-reactive protein (hsCRP) and IL-1] were performed. The secondary safety endpoints were analyzed with Wilcoxon signed-rank tests. A two-sided significance level of 0.05 was used. SAS v. 9.3 (SAS Institute Inc., Cary, N.C., USA) was used for these analyses. […]
# [4] = test system: organic anion-transporting polypeptide (OATP); assay: Drug-drug interaction with strong OATP inhibitors
smiles,measurement,setting,value
"CC[C@@H](Oc1cccc(CN(CCCOc2ccc(OC)cc2)c2nc3ccccc3o2)c1)C(=O)O [Pemafibrate, (2R)-2-[3-({1,3-benzoxazol-2-yl[3-(4-methoxyphenoxy)propyl]amino}methyl)phenoxy]butanoic acid]",potency in decreasing TG and increasing HDL-C,[1],more potent than fenofibrate
same,inhibitory effects on major drug metabolizing enzymes in the liver,[2],minimal
same,HDL-C % Change from baseline at Week 52 (LOCF),[3]; All Participants,13.1%
same,HDL-C Week 52 (LOCF),[3]; All Participants,1.33 mmol/L
same,LDL-C % Change from baseline at Week 52 (LOCF),[3]; All Participants,2.2%
same,LDL-C Week 52 (LOCF),[3]; All Participants,3.02 mmol/L
same,RemL-C % Change from baseline at Week 52 (LOCF),[3]; All Participants,−57.2%
same,RemL-C Week 52 (LOCF),[3]; All Participants,0.18 mmol/L
same,TG % Change from baseline at Week 52 (LOCF),[3]; All Participants,−45.8%
same,TG Week 52 (LOCF),[3]; All Participants,1.48 mmol/L
same,TG/HDL-C % Change from baseline at Week 52 (LOCF),[3]; All Participants,−49.7%
same,TG/HDL-C Week 52 (LOCF),[3]; All Participants,2.27 (mmol/L)/(mmol/L)
same,apoA1 % Change from baseline at Week 52 (LOCF),[3]; All Participants,5.0%
same,apoA1 Week 52 (LOCF),[3]; All Participants,137.6 mg/dL
same,non-HDL-C % Change from baseline at Week 52 (LOCF),[3]; All Participants,−8.7%
same,non-HDL-C Week 52 (LOCF),[3]; All Participants,3.63 mmol/L
same,HDL-C % Change from baseline at Week 52 (LOCF),[3]; eGFR G1 (≥90),3.6%
same,HDL-C Week 52 (LOCF),[3]; eGFR G1 (≥90),1.29 mmol/L
same,LDL-C % Change from baseline at Week 52 (LOCF),[3]; eGFR G1 (≥90),2.7%
same,LDL-C Week 52 (LOCF),[3]; eGFR G1 (≥90),3.12 mmol/L
same,RemL-C % Change from baseline at Week 52 (LOCF),[3]; eGFR G1 (≥90),−59.9%
same,RemL-C Week 52 (LOCF),[3]; eGFR G1 (≥90),0.21 mmol/L
same,TG % Change from baseline at Week 52 (LOCF),[3]; eGFR G1 (≥90),−41.4%
same,TG Week 52 (LOCF),[3]; eGFR G1 (≥90),1.71 mmol/L
same,TG/HDL-C % Change from baseline at Week 52 (LOCF),[3]; eGFR G1 (≥90),−40.5%
same,TG/HDL-C Week 52 (LOCF),[3]; eGFR G1 (≥90),1.58 (mmol/L)/(mmol/L)
same,apoA1 % Change from baseline at Week 52 (LOCF),[3]; eGFR G1 (≥90),0.0%
same,apoA1 Week 52 (LOCF),[3]; eGFR G1 (≥90),133.8 mg/dL
same,non-HDL-C % Change from baseline at Week 52 (LOCF),[3]; eGFR G1 (≥90),−8.3%
same,non-HDL-C Week 52 (LOCF),[3]; eGFR G1 (≥90),3.77 mmol/L
same,HDL-C % Change from baseline at Week 52 (LOCF),[3]; eGFR G2 (≥60 and <90),11.9%
same,HDL-C Week 52 (LOCF),[3]; eGFR G2 (≥60 and <90),1.34 mmol/L
same,LDL-C % Change from baseline at Week 52 (LOCF),[3]; eGFR G2 (≥60 and <90),2.1%
same,LDL-C Week 52 (LOCF),[3]; eGFR G2 (≥60 and <90),3.03 mmol/L
same,RemL-C % Change from baseline at Week 52 (LOCF),[3]; eGFR G2 (≥60 and <90),−56.0%
same,RemL-C Week 52 (LOCF),[3]; eGFR G2 (≥60 and <90),0.18 mmol/L
same,TG % Change from baseline at Week 52 (LOCF),[3]; eGFR G2 (≥60 and <90),−45.8%
same,TG Week 52 (LOCF),[3]; eGFR G2 (≥60 and <90),1.47 mmol/L
same,TG/HDL-C % Change from baseline at Week 52 (LOCF),[3]; eGFR G2 (≥60 and <90),−48.9%
same,TG/HDL-C Week 52 (LOCF),[3]; eGFR G2 (≥60 and <90),1.24 (mmol/L)/(mmol/L)
same,apoA1 % Change from baseline at Week 52 (LOCF),[3]; eGFR G2 (≥60 and <90),4.1%
same,apoA1 Week 52 (LOCF),[3]; eGFR G2 (≥60 and <90),137.2 mg/dL
same,non-HDL-C % Change from baseline at Week 52 (LOCF),[3]; eGFR G2 (≥60 and <90),−8.4%
same,non-HDL-C Week 52 (LOCF),[3]; eGFR G2 (≥60 and <90),3.64 mmol/L
same,HDL-C % Change from baseline at Week 52 (LOCF),[3]; eGFR G3a-G3b (≥30 and <60),17.0%
same,HDL-C Week 52 (LOCF),[3]; eGFR G3a-G3b (≥30 and <60),1.38 mmol/L
same,LDL-C % Change from baseline at Week 52 (LOCF),[3]; eGFR G3a-G3b (≥30 and <60),5.1%
same,LDL-C Week 52 (LOCF),[3]; eGFR G3a-G3b (≥30 and <60),2.97 mmol/L
same,RemL-C % Change from baseline at Week 52 (LOCF),[3]; eGFR G3a-G3b (≥30 and <60),−59.3%
same,RemL-C Week 52 (LOCF),[3]; eGFR G3a-G3b (≥30 and <60),0.17 mmol/L
same,TG % Change from baseline at Week 52 (LOCF),[3]; eGFR G3a-G3b (≥30 and <60),−51.1%
same,TG Week 52 (LOCF),[3]; eGFR G3a-G3b (≥30 and <60),1.36 mmol/L
same,TG/HDL-C % Change from baseline at Week 52 (LOCF),[3]; eGFR G3a-G3b (≥30 and <60),−57.0%
same,TG/HDL-C Week 52 (LOCF),[3]; eGFR G3a-G3b (≥30 and <60),1.09 (mmol/L)/(mmol/L)
same,apoA1 % Change from baseline at Week 52 (LOCF),[3]; eGFR G3a-G3b (≥30 and <60),8.0%
same,apoA1 Week 52 (LOCF),[3]; eGFR G3a-G3b (≥30 and <60),144.0 mg/dL
same,non-HDL-C % Change from baseline at Week 52 (LOCF),[3]; eGFR G3a-G3b (≥30 and <60),−7.7%
same,non-HDL-C Week 52 (LOCF),[3]; eGFR G3a-G3b (≥30 and <60),3.56 mmol/L
same,HDL-C % Change from baseline at Week 52 (LOCF),[3]; eGFR G4-G5 (<30),34.1%
same,HDL-C Week 52 (LOCF),[3]; eGFR G4-G5 (<30),1.18 mmol/L
same,LDL-C % Change from baseline at Week 52 (LOCF),[3]; eGFR G4-G5 (<30),−8.8%
same,LDL-C Week 52 (LOCF),[3]; eGFR G4-G5 (<30),2.82 mmol/L
same,RemL-C % Change from baseline at Week 52 (LOCF),[3]; eGFR G4-G5 (<30),−57.1%
same,RemL-C Week 52 (LOCF),[3]; eGFR G4-G5 (<30),0.24 mmol/L
same,TG % Change from baseline at Week 52 (LOCF),[3]; eGFR G4-G5 (<30),−37.7%
same,TG Week 52 (LOCF),[3]; eGFR G4-G5 (<30),1.64 mmol/L
same,TG/HDL-C % Change from baseline at Week 52 (LOCF),[3]; eGFR G4-G5 (<30),−51.0%
same,TG/HDL-C Week 52 (LOCF),[3]; eGFR G4-G5 (<30),1.68 (mmol/L)/(mmol/L)
same,apoA1 % Change from baseline at Week 52 (LOCF),[3]; eGFR G4-G5 (<30),16.7%
same,apoA1 Week 52 (LOCF),[3]; eGFR G4-G5 (<30),122.4 mg/dL
same,non-HDL-C % Change from baseline at Week 52 (LOCF),[3]; eGFR G4-G5 (<30),−17.3%
same,non-HDL-C Week 52 (LOCF),[3]; eGFR G4-G5 (<30),3.48 mmol/L
same,LDL-C change (observation),[3]; lowest eGFR group (eGFR<30 mL/min/1.73 m^2: G4-G5),reduction
same,"interaction with strong OATP inhibitors (e.g., cyclosporine and rifampin)",[4],interact
